# Measurements reported in patent US8623832B2, “Peptide compositions that bind TLR-4” (The Board of Regents of the University of Oklahoma, priority 2011, dated 2014).
# Where no end group is shown, it is not given here.
# Key:
# [1] = test system: SW480 cells; assay: Cell cycle analysis of SW480 cells by flow cytometry; type: cell-based, human; settings: SPA4 10, 50 and 100 μM; over 40 h
# Protocol: Cell cycle analysis: The effect of SPA4 peptide on cell cycle progression was studied by flow-cytometry. About 500,000 cells were seeded per well into 6 well plate. The cells were challenged with LPS (100 ng/ml) for 4 hours. After the completion of 4 hours LPS-challenge period, SPA4 peptide (10, 50 and 100 μM) was added to the cells. Cells were further incubated for 20 and 40 hours. Vehicle-treated cells were also included. After 20 and 40 hours of total incubation period, both adherent and non-adherent cells were collected and centrifuged at 260×g for 5 minutes. The supernatant was discarded and cell pellet was washed with DPBS (Invitrogen-Gibco, NY). The cells were fixed in 70% ice-cold ethanol on ice for 1 hour and stained with a buffer containing 200 μg/ml DNase-free RNase A (Sigma, St Louis, Mo.), 0.1% v/v Triton-X 100 and 20 μg/ml propidium iodide (Molecular Probes, Carlsbad, Calif.). The cells were incubated at 4° C. for 30 minutes in the dark, before measuring cell fluorescence using Becton Dickson FACS Calibur flow cytometer. The single cells were selected by gating out the aggregates and the percent number of cell populations in different cell cycle phases were calculated by de-convoluting the results ModFIT software (Verity software house, Topsham, Me.).
# [2] = test system: NF-κB; assay: NF-κB luciferase reporter activity in LPS-challenged SW480 cells; type: cell-based, human; settings: LPS 1.0 μg/ml
# Protocol: NF-κB activity: Since binding of LPS to TLR4 activates NF-κB through MYD88-dependent and independent pathways, the effects of SPA4 peptide on basal and LPS-induced NF-κB activity were investigated in SW480 cells transfected with a dominant negative construct of MYD88 (MYD88DN) and NF-κB firefly-luciferase reporter plasmid DNA. Both the short-(1 hour) and long-term (5 hours) effects of the SPA4 peptide on NF-κB activity were studied.
# The SW480 cells were transiently-transfected with NF-κB firefly-luciferase reporter plasmid pGL4.32 (luc2P/NF-κB-RE/Hygro, Promega, WI; provided by Dr. Kelly Standifer, Department of Pharmaceutical Sciences, University of Oklahoma Health Sciences Center, Oklahoma City, Okla.) and MYD88-dominant negative plasmid construct (MYD88DN, provided by Dr. Ruslan Medzhitov, Yale University, CT). MYD88 dominant negative plasmid DNA construct lacked the death domain and intermediate domain (Medzhitov et al., 1998). Briefly, NF-κB-Luciferase reporter and MYD88-dominant negative plasmids (1.0 μg each) were mixed with 6 μl of Fugene HD reagent (Roche, Ind.) in 92 μl of serum-free low-glucose DMEM medium (Invitrogen, CA), and incubated for 20 minutes at room temperature. The transfection-mix was then added to the SW480 cells. The SW480 cells transfected with a plasmid DNA construct expressing enhanced green fluorescent protein (pHYG-EGFP; Clontech, CA) were observed under Leica DM4000B fluorescent microscope. The transfection efficiency was calculated as percent of cells expressing EGFP over total number of cells in the brightfield channel. […]
# After completion of the incubation period, the medium supernatants were removed and cells were washed with room-temperature DPBS. […] The firefly-luciferase activity (measurement of NF-κB activity) was measured using the luciferase reporter assay system (Promega, Fitchburg, Wis.). Briefly, 50 μl of luciferase assay reagent was added to the 20 μl cell lysate by automated dispenser of Synergy HT multi-mode microplate reader (Biotek, Winooski, Vt.), and luminescence was read within 10 seconds. […]
# [3] = test system: primary adult baboon lung DCs and fetal baboon lung DC-precursor cells; assay: TNF-α secretion against E. coli by baboon lung DCs (ELISA); type: cell-based
# Protocol: After confirming that the fluorescence is of phagocytosed bioparticles, comprehensive experiments were performed in presence and absence of effector molecules (SP-A and TLR4-MD2 proteins). The cells were pulsed with purified, native baboon lung SP-A and recombinant human TLR4-MD2 or MD2 proteins (RnD Systems, MN) for an hour prior to phagocytosis assay with pHrodo-conjugated, heat-killed E. coli K12 bioparticles (Invitrogen-Molecular Probes, CA). MD2 protein was also included, because SP-A is known to interact with MD2, and it was questioned if MD2 can influence the immune functions of DC-population. The assay was performed in serum-free Opti-MEM medium (Invitrogen, CA), as described by the manufacturer (Invitrogen-Molecular Probes, CA). The assay mixtures were incubated for another 3 hours at 37° C. in 5% CO2 incubator. The fluorescence readings were taken at 550 nm excitation and 600 nm emission wavelengths using SpectraMax M2 spectrofluorometer (Molecular Devices, CA).
# Cytokine (TNF-α) measurement: The TNF-α levels were measured in cell-free supernatants by enzyme linked immunosorbent assay (ELISA) using a commercially available kit (eBioscience, CA), as per the manufacturer's instructions. Briefly, the microwells of a 96 well plate were coated with diluted purified anti-human TNF-α antibody. The wells were washed, and nonspecific sites were blocked. Diluted recombinant human TNF-α (7.8-500 pg/ml standard) and cell-free-supernatant (1:10) were added to the antibody-coated wells, and the plate was incubated overnight at 4° C. The next day, the plate was washed and incubated with biotin-conjugated anti-human TNF-α antibody followed by avidin-horseradish peroxidase and substrate solution. The reaction was stopped by adding 2 N H2SO4 and read at 450 nm (Molecular Devices, CA).
Substance,cell cycle progression of SW480 cells [1],"LPS induced NF-κB activity at 9 hours ([2]; SPA4 1, 10 or 50 μM, long-term)","LPS induced-NF-κB activity after 5 hours ([2]; SPA4 10 and 50 μM, short-term)",NF-κB activity in cells transfected with dominant negative construct of MYD88 ([2]; MYD88DN),"secretion of TNF-α by DCs in response to E. coli ([3]; 3 hours phagocytosis reaction, protein added alone)","TLR4-MD2 protein-induced TNF-α release against E. coli ([3]; SP-A and TLR4-MD2 added together, 3 hours with E. coli)"
"GDFRYSDGTPVNYTNWYRGE [SPA4, GDFRYSDGT PVNYTNWYRGE]",did not affect,not significantly inhibited,reduces,did not further reduce,,
SP-A: native surfactant protein-A purified from bronchioalveolar lavage fluid of a normal healthy adult baboon (MWLCPLALTLTLMAASGAACEVKDVCVGSPGIPGTPGSHGLPGRDGRDGVKGDPGPP; listed as Papio cynocephalus),,,,,did not induce the secretion of TNF-α,reduces
